# Where “and” joins values, the source holds several entries; their conditions need not be identical. Equal values may be shown once.
# Tested on: Draining Lymph Nodes (LNs) from the Normal Breast Tissue
# Test: Dynamic micro-MR mammo-lymphangiography after injection into normal mammary gland (Example 1)
# Assay type: in vivo, mice
# Experimental: Mice were anesthetized with 1.15 mg sodium pentobarbital (Dainabot, Osaka, Japan), and then injected with 0.15-0.24 μmol Gd/5-8 μL of the PAMAM-G6 contrast agent into normal mammary glands or mammary tissue surrounding a tumor (peritumorally). Dynamic micro-MR images were obtained using a 1.5-Tesla superconductive magnet unit (Signa LX, General Electric Medical System, Milwaukee, Wis.) with a birdcage type coil of 3 cm diameter fixed by a custom made coil holder. Single and double “breast coils” used for imaging breasts in humans are commercially available, for example, from GE Medical Systems (Milwaukee, Wis.) and are routinely available in outpatient MRI centers. The mice were wrapped with gauze to stabilize their body temperature and were placed at the center of the coils.
# In order to evaluate the lymphatic drainage from the normal mammary gland of either Balb/c mice (n=5) or athymic nu/nu mice (n=5), 3D-fast spoiled gradient echo (3D-fastSPGR (efgre3d package; Signa Horizon, GE); repetition time/echo time 19.2/7.2 msec; inversion time 47 msec; 31.2 kHz, flip angle 30°, 4 excitations; 36 slice encoding steps; scan time 4 min 49 seconds) with chemical shift fat-suppression was used 6, 12, 18, 24, 30, 36, 42, and 48 min after injection of the contrast agent. The coronal images were reconstructed with 0.6-mm section thickness every 0.3-mm. The field of view was 8×4 cm and the size of the matrix was 512×256. The slice data were processed into 3D images using the maximum intensity projection (MIP) method with the same window and level (window 3500 and level 2100) (Advantage Windows, General Electric Medical System). After imaging, the mice were sacrificed by carbon dioxide inhalation.
# Athymic nu/nu mice (n=4) were anesthetized and injected with 0.15 μmol Gd of GPDM into the mammary gland, and images were taken 12, 24, and 36 min after injection. Following these three images, these mice were subsequently injected with 0.15 μmol Gd of PAMAM-G6 contrast agent in the mammary gland, and images were taken at 12 and 24 min post-injection of the PAMAM-G6 contrast agent (at 48 and 60 min post-injection of GPDM).
substance,measurement,setting,value
PAMAM-G6D-(Gd-1B4M)256 dendrimer conjugate,"Visualized LNs/Total Examined LNs, Axillary LN",6 min after injection,visualized at the initial (6 min) time point in all 10 mice and 10/10
same,"Visualized LNs/Total Examined LNs, Lateral thoracic LN",6 min after injection,0/10
same,"Visualized LNs/Total Examined LNs, Superficial cervical LN",6 min after injection,1/10
same,"Visualized LNs/Total Examined LNs, Axillary LN",12 min after injection,10/10
same,"Visualized LNs/Total Examined LNs, Lateral thoracic LN",12 min after injection,1/10
same,"Visualized LNs/Total Examined LNs, Superficial cervical LN",12 min after injection,1/10
same,"Visualized LNs/Total Examined LNs, Axillary LN",18 min after injection,10/10
same,"Visualized LNs/Total Examined LNs, Lateral thoracic LN",18 min after injection,2/10
same,"Visualized LNs/Total Examined LNs, Superficial cervical LN",18 min after injection,1/10
same,"Visualized LNs/Total Examined LNs, Axillary LN",24 min after injection,10/10
same,"Visualized LNs/Total Examined LNs, Lateral thoracic LN",24 min after injection,4/10
same,"Visualized LNs/Total Examined LNs, Superficial cervical LN",24 min after injection,2/10
same,"Visualized LNs/Total Examined LNs, Axillary LN",30 min after injection,10/10
same,"Visualized LNs/Total Examined LNs, Lateral thoracic LN",30 min after injection,4/10
same,"Visualized LNs/Total Examined LNs, Superficial cervical LN",30 min after injection,2/10
same,"Visualized LNs/Total Examined LNs, Axillary LN",36 min after injection,10/10
same,"Visualized LNs/Total Examined LNs, Lateral thoracic LN",36 min after injection,5/10
same,"Visualized LNs/Total Examined LNs, Superficial cervical LN",36 min after injection,3/10
same,"Visualized LNs/Total Examined LNs, Axillary LN",42 min after injection,10/10
same,"Visualized LNs/Total Examined LNs, Lateral thoracic LN",42 min after injection,6/10
same,"Visualized LNs/Total Examined LNs, Superficial cervical LN",42 min after injection,3/10
same,"Visualized LNs/Total Examined LNs, Axillary LN",48 min after injection,10/10
same,"Visualized LNs/Total Examined LNs, Lateral thoracic LN",48 min after injection,6/10
same,"Visualized LNs/Total Examined LNs, Superficial cervical LN",48 min after injection,3/10
same,Visualization of draining lymph nodes and lymphatic vessels (FIG. 5),"athymic nu/nu mice, 0.15 μmol Gd into the mammary gland, GPDM imaged at 12, 24, 36 min, then PAMAM-G6",clearly visualized

# — patent US20060204443A1, “Methods for tumor treatment using dendrimer conjugates” (The Government of the USA as represented by the Secretary …, priority 2005, published 2006)
